# Key:
# [1] = tested on: Pancreatic Cancer Cells (PaCa2); assay: Real-time PCR Angiogenesis Array; assay type: cell-based; details: 100 uM Q10, various times
# Procedure: Experiments were carried out essentially as described above.
# [2] = tested on: Pyruvate Dehydrogenase beta (PDH-E1); assay: Western blot of pyruvate dehydrogenase beta levels; assay type: cell-based, human
# Procedure: The samples were processed and run on a 4-12% Bis-Tris Novex NuPAGE gel as described above. The gels were run, transferred and stained essentially as described above.
# The pyruvate kinase blots were stripped by incubating for 30 minutes with methanol, followed by two 10 minute washes with TBS-T, then 30 minutes of incubation with Stripping buffer at 50 deg C., and followed by two washes with 100 ml or more of TBS-T for 30′ each. The 2 blots were scanned in laser scanner to check for complete stripping. After making sure stripping of the antibody and the ECF reagent has worked, the blots were activated with methanol for 5 seconds, washed with water for 5 minutes, and TBST for 15 minutes. The blots are blocked for 1 hour with 5% blocking reagent in TBS-T at room temperature and then washed 3 times with TBS-T (1×-15′; 2×5′ each) and probed with the antibody for Pyruvate Dehydrogenase in 5% BSA (ABNOVA catalog #H00005162-M03) at 1:500 dilutions) overnight at 4 deg C. with shaking. […]
# The levels of LDH and PDH were determined by probing the blots successively with primary antibodies for LDH and PDH, essentially as described above. […]
structure (smiles),measurement,setting,value
"COC1=C(OC)C(=O)C(C/C=C(\C)CC/C=C(\C)CC/C=C(\C)CC/C=C(\C)CC/C=C(\C)CC/C=C(\C)CC/C=C(\C)CC/C=C(\C)CC/C=C(\C)CCC=C(C)C)=C(C)C1=O [Q10, Coenzyme Q10]","mRNA of AKT1, ANGPTL4, ANGPEP, CCL2, CDH4, CXCL1, EDG1, EFNA3, EFNB2, EGF, FGF1, ID3, IL1B, 1L8, KDR, NRP1, PECAM1, PROK2, SERPINF1, SPHK1, STAB1, TGFB1, VEGFA and VEGFB",[1],modulated
same,expression of PDH-E1,[2]; cancer cells,progressive increase
same,expression of PDH-E1,[2]; normal cells,minimal changes

# — patent US9205064B2, “Methods for the diagnosis of oncological disorders using epimetabolic shifters, multidimensional intracellular molecules, or environmental influencers” (Berg LLC, priority 2009, dated 2015)
